Legend:
γ-secretase [1] = target: T1, γ-secretase (Homo sapiens, UniProt P49768); test: Membrane-based radioligand binding assay with [^131I]-PN67; settings: for Blocking of PN67 binding to γ-secretase: Hela cell membrane, [^131I]-PN67 radioligand
γ-secretase [2] = target: T1, γ-secretase; test: In vitro γ-secretase activity assay; assay type: biochemical
[3] = Ex vivo biodistribution in 4T1-Luc allograft mouse model
γ-secretase [4] = target: γ-secretase (Mus musculus, UniProt P49769); test: PET imaging of 4T1-Luc tumors in BALB/c mice, baseline and blocking; assay type: in vivo; settings: co-injection 0.2 mg/kg to 30 mg/kg, 2h post injection
[5] = biodistribution, post injection

O=C(O)CC[C@H]1CC[C@@](c2cc(F)ccc2F)(S(=O)(=O)c2ccc(Cl)cc2)CC1 [MK-0752]
Blocking of PN67 binding to γ-secretase (γ-secretase [1]): effectively block PN67 binding to γ-secretase

CCC[C@H](N[C@H]1CCc2cc(F)cc(F)c2C1)C(=O)Nc1cn(C(C)(C)CNCC(C)(C)C)cn1 [PF-03084014]
Blocking of PN67 binding to γ-secretase (γ-secretase [1]): effectively block PN67 binding to γ-secretase

CC(C)(C(=O)NCC(F)(F)C(F)(F)F)C(=O)N[C@@H]1C(=O)Nc2ccccc2-c2ccccc21 [RO-4929097]
Blocking of PN67 binding to γ-secretase (γ-secretase [1]): effectively block PN67 binding to γ-secretase

CC(C)[C@H](O)C(=O)N[C@@H](C)C(=O)N[C@@H]1C(=O)N(C)CCc2ccccc21 [compound 1, Semagacestat]
IC50 (γ-secretase [2]): 16.2 nM | Ki (γ-secretase [1]): 13.6 nM | Blocking of 4T1 tumor uptake of [^124I]-PN67 (biodistribution) ([3]; co-administered 30mg/kg with the tracer, 2h time point): significant reduction of tracer uptake | Blocking of [^124I]-PN67 PET signal in 4T1-Luc tumor (γ-secretase [4]): blocked in a dose-dependent manner

CC(C)[C@H](O)C(=O)N[C@@H](C)C(=O)N[C@@H]1C(=O)N(C)CCc2ccc(I)cc21 [compound 2, (S)-2-hydroxy-N-((S)-1-(((S)-8-iodo-3-methyl-2-oxo-2,3,4,5-tetrahydro-1H-benzo[d]azepin-1-yl)amino)-1-oxopropan-2-yl)-3-methylbutanamide]
IC50 (γ-secretase [2]): 3.5 nM | Ki (γ-secretase [1]): 4.3 nM | Half-life in mouse models ([3]; based on ex vivo biodistribution and PET imaging): about 2 hours | Time of maximal radioactivity in large intestine [3, 5]: 2 h | Time of maximal radioactivity in liver [3, 5]: 0.5 h | Time of maximal radioactivity in small intestine [3, 5]: 1 h

— PMC8610083 (Clinical cancer research : an official journal of the …, 2021)
